Test results as given in patent US7875607B2, “7,8-bicycloakyl-chroman derivatives” (Ampere Life Sciences, Inc., priority 2004, dated 2011).

Tested on: IL-1beta production in mouse microglial cell line
Experiment: Interleukin-1β microglial cell assay
Format: cell-based
Details: LPS 10 μg/ml and IFN gamma 10 ng/ml, 24 hours, read-out: EC50, inhibition of IL-1beta production
Method: This assay measures the release of IL-1β from a mouse microglial cell line following an inflammatory challenge with LPS and interferon-gamma. The ability of test articles to inhibit microglial cell activation and IL-1β release is determined by co-incubation of the test article with the inflammatory challenge.
Mouse microglial cells were seeded in poly-D-lysine coated 96-well plates at a density of 10,000 cells/well and allowed to attach for 24 hours. Cells were stimulated by addition of LPS (10 μg/ml) and IFN gamma (10 ng/ml) in the presence or absence of test article. The cells were then incubated for 24 hours at 37° C., after which time the media was removed and used for cytokine determination as described below.
Viability of mouse microglial cells after exposure to the test article was determined using a fluorescent viability dye, Cell Tracker Green. Cell Tracker Green was used at a working concentration of 5 μM in 1×HBSS. Cells were washed once with HBSS (200 μl/well) and 100 μl Cell Tracker Green was added to each well. Cells were then incubated at 37° C. for 30 minutes, after which time the Cell Tracker was removed and the cells were washed once with HBSS (200 μl/well). 100 μl fresh HBSS was added to each well and the plate was read on a Fluoroskan plate reader using an excitation wavelength of 485 nm and an emission wavelength of 538 nm.
Solutions: • Wash Buffer: PBS 1 L+500 μl Tween 20 (final 0.05%) pH 7.2-7.4. • Blocking Buffer: 500 ml PBS+5 g BSA V (1%)+25 g Sucrose (5%)+0.25 g Sodium Azide (0.05%). • Reagent Diluent: 500 ml PBS+5 g BSA V (1%) pH 7.2-7.4 and filter sterilize through 0.2 μm. • Stop Solution: 2N sulfuric acid.
Duo Set Preparations: • 1. The IL-1β capture antibody was reconstituted in 1 ml of PBS to give a final concentration of 720 μg/ml, and the working concentration was 4 μg/ml. For coating one 96-well plate (at 100 μl/well) 56 μl of the 720 μg/ml stock was diluted into 10 ml of PBS. • 2. The IL-1β standards were reconstituted in 0.5 ml of Reagent Diluent (70 ng/ml). For a high standard of 1 ng/ml (2 wells at 100 μl each+enough for series dilution) 7.1 μl of the 70 ng/ml standard were diluted into 0.5 ml of Reagent Diluent • 3. The IL-1β detection antibody was reconstituted in 1 ml of Reagent Diluent to give a final concentration of 18 μg/ml and the working concentration is 100 ng/ml. For one 96-well plate (at 100 μl/well) 56 μl of the 18 μg/ml stock was diluted into 10 ml of Reagent Diluent.
• The Costar EIA Hi-binding plate was coated with capture antibody at 4 μg/ml. Each well was coated with 100 μl, and the plate was sealed and incubated overnight at room temperature. • Each well was aspirated and washed 3× with Wash Buffer. Each well was filled to the top, dispensed, and any remaining buffer was removed by inverting the plate and gently blotting against clean paper towels. • Non-specific binding sites were blocked by adding 300 μl of Blocking Buffer to each well, and after sealing incubating for at least 1 hour at room temperature. • After washing the plate was now ready for the samples. Assay Procedure: • 100 μl of either standard or sample were added in each well of the capture-coated and pre-blocked plate. The plate was sealed and incubated for 2 hours at room temperature, followed with washing. • 100 μl of the detection antibody (10 ng/ml) were added to each well. […]

| EC50 | SMILES |
| --- | --- |
| ≤ 20 µM | CC(C)=CCc1c(O)c2c(c3c1CCC(C)(C)O3)C1CCC2C1 (centres unmarked) [2,2-Dimethyl-5-(3-methyl-but-2-enyl)-3,4,7,8,9,10-hexahydro-7,10-methano-2H-benzo[h]chromen-6-ol] |
| ≤ 20 µM | CC(C)CCc1c(O)c2c(c3c1CCC(C)(C)O3)C1CCC2C1 (centres unmarked) [2,2-Dimethyl-5-(3-methyl-butyl)-3,4,7,8,9,10-hexahydro-7,10-methano-2H-benzo[h]chromen-6-ol] |
